Laboratory results as given in publication PMC11206987, “Investigation of the Efficacy of Benzylidene-3-methyl-2-thioxothiazolidin-4-one Analogs with Antioxidant Activities on the Inhibition of Mushroom and Mammal Tyrosinases” (Molecules, 2024).
Where two headings read alike, the source gives them in different places.

Columns and labels:
[1] = In vitro ROS scavenging activity assay (SIN-1, DCFH-DA/esterase); settings: test sample 40 µM; SIN-1 10 µM
Protocol: Third, the ability of analogs 1–8 to scavenge in vitro ROS was determined. Esterase was mixed with 2′,7′-dichlorodihydrofluorescein diacetate (DCFH-DA) to produce 2′,7′-dichlorodihydrofluorescein (DCFH). 3-Morpholinosydnonimine (SIN-1) generates ROS that react with DCFH, resulting in the formation of DCF (2′,7′-dichlorofluorescein). Therefore, the ability of analogs 1–8 to scavenge ROS was calculated by measuring the fluorescence of DCF with 10 µM SIN-1 and 40 µM test samples (Trolox (positive control) and analogs 1–8). […] The ability of analogs to scavenge ROS was examined as previously described. To a 15 mL tube were added DCFH-DA solution (1.25 mM; 50 µL), phosphate buffer (50 mM, 4.9 mL), and esterase (600 units/mL; 50 µL). The esterase–DCFH-DA solution was left in a dark place for 30 min. A 10 µL SIN-1 solution was added to each well of a black 96-well plate and mixed with phosphate buffer (180 µL) and Trolox (10 µL) or analogs 1–8 (10 µL). SIN-1, Trolox, and analogs 1–8 were treated at 10, 40, and 40 µM, respectively. After 5 min, 50 µL of the esterase–DCFH-DA solution was added to each well. The well fluorescence of DCF was acquired at 535 nm utilizing a microplate reader (Berthold Advances GmbH & Co., Bad Wildbad, Germany) using a 485 nm excitation wavelength. Trolox was used to compare ROS scavenging activity.

[2] = ABTS+ radical scavenging activity assay; settings: 100 µM
Protocol: Second, the ability of BMTTZD analogs to scavenge ABTS^+ radicals was examined. ABTS^+ radicals were obtained via the oxidation of ABTS using potassium persulfate. All samples (Trolox (positive control) and 1–8) were tested at 100 µM.
The ability of the BMTTZD analogs to scavenge ABTS^+ radicals was assessed as previously described, with minor modifications. To a 50 mL tube were added 20 mL aqueous K2S2O8 solution (2.45 mM) and 20 mL aqueous ABTS solution (7 mM). The combined mixture was placed at 22 °C in a place without light for 17 h to generate the ABTS^+ radicals. For adequate absorbance control (0.70 ± 0.02 at 734 nm), methanol was added to the combined mixture. Test compounds (Trolox and analogs 1–8; 10 µL in 10% DMSO/90% EtOH [v/v] solution) were mixed with 90 µL ABTS^+ radical solution. After storage in a place without light for 2 min, the well absorbance at 734 nm was acquired for 10 min every 1 min by using a microplate reader (VersaMax®). All test compounds were tested at 100 µM. The activity of the analogs was compared to that of Trolox.

[3] = DPPH radical scavenging activity assay; settings: 500 µM
Protocol: First, the ability of BMTTZD analogs 1–8 to scavenge DPPH radicals was examined using L-ascorbic acid (vitamin C; positive control). All samples were tested at 500 µM.
The ability of the BMTTZD analogs to scavenge DPPH radicals was evaluated as previously reported. To each well of a 96-well plate containing analogs 1–8 (5 mM in […]; 20 µL) was added a DPPH solution (0.2 mM in methanol; 180 µL). The mixture was kept in a place without light for 30 min at 25°C to generate DPPH radicals. The well absorbance at 517 nm was measured utilizing a VersaMax® reader. The ability of the analogs to remove DPPH radicals was compared to that of vitamin C.

mushroom tyrosinase [4] = target: mushroom tyrosinase (Agaricus bisporus, UniProt C7FF04); assay: Kinetic study of mushroom tyrosinase inhibition (Lineweaver–Burk and Dixon plots); type: biochemical; settings: substrate L-dopa 0.5–16 mM
Protocol: The initial rate of dopachrome generation was examined at various BMTTZD analog concentrations (0, 1.5, 3, and 6 µM for analog 1; 0, 2, 4, and 8 µM for analogs 2 and 5; and 0, 0.05, 0.1, and 0.2 µM for 3) with 0.5, 1, 2, 4, 8, or 16 mM L-dopa as substrates using mushroom tyrosinase. Plotting the reciprocal of the dopachrome formation rate against the inverse of the L-dopa concentration produced Lineweaver–Burk plots (Figure 2). Each Lineweaver–Burk plot created four straight lines with different slopes. For analogs 1 and 3, the four straight lines met at a point on the y-axis, whereas for analogs 2 and 5, the four straight lines converged at a point in the second quadrant.
The Dixon plots produced lines that met in the second quadrant. The x-coordinate of the convergence position represents the inhibition constant (Ki) of the ligand.
Lineweaver–Burk (L-B) plots were acquired for the kinetic analysis of analogs against mushroom tyrosinase as previously described. In brief, 10 µL of a solution of DMSO and BMTTZD analogs 1–3 or 5 (final concentrations: 0, 1.5, 3, and 6 µM for analog 1; 0, 2, 4, and 8 µM for analogs 2 and 5; and 0, 0.05, 0.1, and 0.2 µM for analog 3) in each well of a 96-well plate was mixed with 20 µL of aqueous mushroom tyrosinase solution (200 units/mL) and 170 µL of an aqueous substrate mixture (various concentrations of L-dopa (final concentrations: 16, 8, 4, 2, 1 and 0.5 mM) and 17.2 mM sodium phosphate buffer (pH 6.5)). During incubation (15 min at 37 °C), the increase in the well absorbance (ΔOD475/min) was calculated at 1 min intervals utilizing a VersaMax® reader.

B16F10 cells = assay: Cell cytotoxicity test (EZ-Cytox); type: cell-based, murine; settings: 2.5–20 µM, 48 and 72 h
Protocol: Because analogs 1–3 and 5 exerted potent mushroom tyrosinase inhibitory activities, their effects on anti-melanogenic and cellular tyrosinase activities were evaluated in B16F10 murine cells. Prior to examining their cellular activity, their cell viabilities were investigated. Cell viability was evaluated at 48 and 72 h after treatment with five different concentrations of analogs.
The effect on B16F10 cytotoxicity was assessed following a previously described method. Cells (1 × 10^4 cells/well of a 96-well plate) were cultivated for 24 h with 5% CO2 at 37 °C. The cells were exposed to the BMTTZD analogs (test concentrations: 20, 10, 5, 2.5, and 0 µM) and cultivated with 5% CO2 at 37 °C for 72 h. An EZ-Cytox solution (10 µL; EZ-500, DoGenBio, Seoul, Republic of Korea) was exposed to each well, and the plate was cultivated for 2 h. Cell viability was calculated from the well absorbance measured at 450 nm utilizing a reader (VersaMax®).

mushroom tyrosinase [5] = assay: Mushroom tyrosinase inhibition assay (dopachrome, 475 nm); type: biochemical; settings: for IC50: mushroom tyrosinase
Protocol: The ability of the BMTTZD analogs to inhibit mushroom tyrosinase was evaluated in the presence of L-dopa and L-tyrosine as previously described.

mushroom tyrosinase (Agaricus bisporus, UniProt C7FF04), sequence (C7FF04 1-392): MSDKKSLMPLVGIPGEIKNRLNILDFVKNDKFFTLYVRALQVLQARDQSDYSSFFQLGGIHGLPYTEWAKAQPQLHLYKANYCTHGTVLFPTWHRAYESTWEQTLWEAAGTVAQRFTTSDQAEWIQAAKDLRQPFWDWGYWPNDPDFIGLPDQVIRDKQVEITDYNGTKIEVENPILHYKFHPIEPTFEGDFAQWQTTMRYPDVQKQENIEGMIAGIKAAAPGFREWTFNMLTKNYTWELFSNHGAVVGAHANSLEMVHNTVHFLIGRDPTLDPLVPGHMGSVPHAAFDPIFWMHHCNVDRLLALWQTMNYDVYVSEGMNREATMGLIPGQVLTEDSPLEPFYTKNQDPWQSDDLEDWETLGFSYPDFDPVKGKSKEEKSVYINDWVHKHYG

Row | Structure (SMILES) | effect on SIN-1-induced ROS levels [1] | ABTS^+ radical scavenging activity [2] [%] | DPPH radical scavenging activity [3] [%] | type of tyrosinase inhibition (Lineweaver–Burk plots) (mushroom tyrosinase [4]) | cytotoxicity (cell viability) (B16F10 cells) | tyrosinase inhibition, fold stronger than kojic acid (mushroom tyrosinase [5]; substrate L-dopa) | IC50 (mushroom tyrosinase [5]; substrate L-dopa, read-out: IC50 (Mean ± SEM, µM) L-Dopa) [µM] | IC50 (mushroom tyrosinase [5]; substrate L-tyrosine, read-out: IC50 (Mean ± SEM, µM) L-Tyrosine) [µM]
1 | Cc1c(C)c2c(c(C)c1O)CCC(C)(C(=O)O)O2 (stereo not drawn) [Trolox, reference compound] | significantly decreased the SIN-1-induced ROS contents | 95 |  |  |  |  |  | 
2 | CN1C(=O)/C(=C/c2ccc(O)c(O)c2)SC1=S [Analog 2, (Z)-5-(3,4-Dihydroxybenzylidene)-3-methyl-2-thioxothiazolidin-4-one] |  | 92 | 93 | mixed-type inhibitors | significant cytotoxicity in a concentration-dependent manner, even at 2.5 µM | four times stronger than kojic acid | 6.18 ± 0.17 | 3.77 ± 0.47
